Reference: paper PMC5458252, “Niclosamide is a potential therapeutic for familial adenomatosis polyposis by disrupting Axin-GSK3 interaction” (Oncotarget, 2017)

Biological target: T1, GSK3β (Homo sapiens, UniProt P49841)
T1 construct: gene GSK3B; His-tagged recombinant GSK3β from sf9 insect cells
Test: SPR (ProteOn XPR36, immobilized recombinant GSK3β); supported by competition with FITC-Axin peptide (AFF assay)
Format: binding
From the text: SPR (ProteOn XPR36, immobilized recombinant GSK3β); supported by competition with FITC-Axin peptide (AFF assay) on GSK3β | wild type Axin peptide or niclosamide directly binds to GSK3, the equilibrium dissociation constant yielding a KD

T1 sequence (P49841 whole entry): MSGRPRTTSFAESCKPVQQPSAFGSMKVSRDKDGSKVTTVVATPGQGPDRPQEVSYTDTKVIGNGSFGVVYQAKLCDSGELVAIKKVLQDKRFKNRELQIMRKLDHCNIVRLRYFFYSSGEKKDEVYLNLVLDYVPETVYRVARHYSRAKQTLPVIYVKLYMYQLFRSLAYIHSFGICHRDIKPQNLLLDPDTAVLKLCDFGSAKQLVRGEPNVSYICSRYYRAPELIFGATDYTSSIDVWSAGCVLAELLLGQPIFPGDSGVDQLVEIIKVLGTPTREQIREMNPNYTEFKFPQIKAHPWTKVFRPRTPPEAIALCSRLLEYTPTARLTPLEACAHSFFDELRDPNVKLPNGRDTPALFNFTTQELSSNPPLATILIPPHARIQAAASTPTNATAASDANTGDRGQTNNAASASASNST

## O=C(Nc1ccc([N+](=O)[O-])cc1Cl)c1cc(Cl)ccc1O [Niclosamide]
  Kd: 34.5 µM
